test system: NCI-H295R; experiment: IC50 (antiproliferative, ATP content); conditions: 48 h
In short: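 In 1536-well plates, 1500 adrenocortical carcinoma cells per well were grown overnight in serum-free, ITS-supplemented DMEM before compounds were pin-transferred at 8 final concentrations (0.6 nM to 46 µM). After 48 h at 37 °C and 5% CO2, CellTiter-Glo luminescence was read following 20 min at room temperature and normalised to vehicle and positive-control wells. IC50 values came from logistic curve fits, with compounds lacking any concentration response listed as above the top dose.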

Compound	IC50
OC1=C(C=C(/C=C(C#N)/C#N)C=C1)O	> 46 µM
COC(C)(C)CCCC(C)C/C=C/C(C)=C/C(=O)OC(C)C (configuration not stated)	> 46 µM
CN(C)CCCN1c2ccccc2C(C)(C)c2ccccc21	> 46 µM
COc1ccccc1OCC(O)COC(N)=O (configuration not stated)	> 46 µM
Cc1nc2n(c(=O)c1CCN1CCC(c3noc4cc(F)ccc34)CC1)CCCC2	> 46 µM
CCn1cc(C(=O)O)c(=O)c2cnc(N3CCCC3)nc21	> 46 µM
NCc1cccnc1	> 46 µM
Cl.Nc1c(Br)cc(Br)cc1CN[C@H]1CC[C@H](O)CC1	> 46 µM
CCOP(=S)(OCC)Oc1ccc2c(C)c(Cl)c(=O)oc2c1	> 46 µM
CCOC(=O)[C@H](CCc1ccccc1)N[C@@H](C)C(=O)N1[C@H](C(=O)O)C[C@@H]2CCC[C@@H]21	> 46 µM
CC(C)NCC(O)c1cc(O)cc(O)c1.CC(C)NCC(O)c1cc(O)cc(O)c1.O=S(=O)(O)O (configuration not stated)	> 46 µM
N#Cc1c(N(CC(=O)[O-])CC(=O)[O-])sc(C(=O)[O-])c1CC(=O)[O-].O.O.O.O.O.O.O.[Sr+2].[Sr+2]	> 46 µM
CCCCCC(C=O)=Cc1ccccc1	> 46 µM
Cl.O=C1NCC2(CCN(CCc3ccccc3)CC2)O1	> 46 µM
O=C(O)CCc1nc2ccccc2[nH]1	> 46 µM
CC(=O)Nc1cc([As](=O)(O)O)ccc1O	> 46 µM
O=C(O)CCNC(=O)c1ccccc1	> 46 µM
CCCN1CCC[C@@H]2Cc3nc(N)ncc3C[C@H]21	> 46 µM
CCCC(O)C(CC)CO (configuration not stated)	> 46 µM
CCOC(=O)[C@H](CCc1ccccc1)N[C@@H](C)C(=O)N1CCC[C@H]1C(=O)O	> 46 µM
CN1CCC(O)(c2ccc(F)cc2)C(C(=O)c2ccc(F)cc2)C1 (configuration not stated)	> 46 µM
C[C@]12CC[C@H]3[C@@H](CCC4=C(Cl)C(=O)CC[C@@]43C)[C@@H]1CC[C@@H]2O	> 46 µM
CNC[C@H](O)[C@@H](O)[C@H](O)[C@H](O)CO	> 46 µM
CCCC(=O)[O-].[Na+]	> 46 µM
O=C(N1C)N[C@](C1=O)([C@@]2=CC=CC=C2)CC	> 46 µM
CC(C)N1CCN(c2ccc(OC[C@H]3COC(Cn4cncn4)(c4ccc(Cl)cc4Cl)O3)cc2)CC1 (some centres not stated)	> 46 µM

Compound	IC50
COc1cc2nc(N3CCN(C(=O)C4COc5ccccc5O4)CC3)nc(N)c2cc1OC.CS(=O)(=O)O (configuration not stated)	> 46 µM
COc1ccc(C(=O)c2ccc(C)cc2)c(O)c1	> 46 µM
O=C1Cc2cc(CCN3CCN(c4nsc5ccccc45)CC3)c(Cl)cc2N1	> 46 µM
Cc1ncc([N+](=O)[O-])n1CCO	> 46 µM
COc1cc(C(=O)NCc2ccc(OCCN(C)C)cc2)cc(OC)c1OC.Cl	> 46 µM
O=CC=O	> 46 µM
Nc1ccc(S(=O)(=O)NC(=O)c2ccccc2)cc1	> 46 µM
CC[N+](CC)(CC)CCC(O)(c1ccccc1)C1CCCCC1.[Cl-] (configuration not stated)	> 46 µM
O=C(Cn1ccnc1[N+](=O)[O-])NCc1ccccc1	> 46 µM
N=C(N)NCc1cccc(I)c1.N=C(N)NCc1cccc(I)c1.O=S(=O)(O)O	> 46 µM
ClC=C(Cl)Cl	> 46 µM
OCC(=O)[C@@]3(O)CC[C@H]2[C@@H]4CC\C1=C\C(=O)CC[C@]1(C)[C@H]4C(=O)C[C@@]23C	> 46 µM
Cl.NCC(O)c1cccc(O)c1 (configuration not stated)	> 46 µM
CCCCCN(CCCCC)C(=O)C(CCC(=O)[O-])NC(=O)c1ccc(Cl)c(Cl)c1.[Na+] (configuration not stated)	> 46 µM
Nc1nc(=O)c(Br)c(-c2ccccc2)[nH]1	> 46 µM
CCOC(=O)C1=C[C@@H](OC(CC)CC)[C@H](NC(C)=O)[C@@H](N)C1.O=C(O)C(O)C(O)C(=O)O	> 46 µM
CN1CCN2c3ncccc3Cc3ccccc3C2C1 (configuration not stated)	> 46 µM
CCCCC1=NC2(CCCC2)C(=O)N1Cc1ccc(-c2ccccc2-c2nnn[nH]2)cc1	> 46 µM
O=C([O-])C[C@H](O)C[C@H](O)/C=C/c1c(C2CC2)nc2ccccc2c1-c1ccc(F)cc1.O=C([O-])C[C@H](O)C[C@H](O)/C=C/c1c(C2CC2)nc2ccccc2c1-c1ccc(F)cc1.[Ca+2]	> 46 µM
CCCc1nc(C)c2c(=O)nc(-c3cc(S(=O)(=O)N4CCN(CC)CC4)ccc3OCC)[nH]n12.O=C(O)CC(O)(CC(=O)O)C(=O)O	> 46 µM
Cl.NCc1ccc(S(N)(=O)=O)cc1	> 46 µM
CN(C)CCCN1c2ccccc2Sc2ccccc21.Cl	> 46 µM
CCCCCCCCCCCCCCCCCCOCC(O)CO (configuration not stated)	> 46 µM
CCS(=O)(=O)CCn1c([N+](=O)[O-])cnc1C	> 46 µM
CC(=O)NC[C@H]1CN(c2ccc(N3CCOCC3)c(F)c2)C(=O)O1	> 46 µM
O=C(OCc1ccccc1)c1ccc(O)cc1	> 46 µM

Compound	IC50
CC(=O)N[C@@H](CC(=O)N[C@@H](CCC(=O)O)C(=O)O)C(=O)O	> 46 µM
NC(=O)c1cc[n+](CC2=C(C(=O)[O-])N3C(=O)[C@@H](NC(=O)Cc4cccs4)[C@H]3SC2)cc1	> 46 µM
CC(=O)SC[C@H](Cc1ccccc1)C(=O)NCC(=O)OCc1ccccc1	> 46 µM
OC[C@H]1O[C@@H](O[C@@H]2[C@@H](CO)O[C@](O)(CO)[C@H]2O)[C@H](O)[C@@H](O)[C@H]1O	> 46 µM
COc1cc(OC)c(C(=O)CCCN2CCCC2)c(OC)c1.Cl	> 46 µM
COC(=O)c1cncn1C(C)c1ccccc1.Cl (configuration not stated)	> 46 µM
O=C(O)C(N12)=[C@@]([C@@H]3OCCC3)S[C@]1([H])[C@]([C@@H](C)O)([H])C2=O	> 46 µM
O=C([O-])c1cc(=O)c2c(OCC(O)COc3cccc4oc(C(=O)[O-])cc(=O)c34)cccc2o1.[Na+].[Na+]	> 46 µM
O=C5O[C@]4(CC5)[C@@]3(C)C[C@@H]6[C@]([C@@]([C@@]([H])3CC4)([H])[C@H]([C@@](OC)=O)C2)(O6)[C@@](C2=C1)(C)CCC1=O	> 46 µM
CC(O)CN(C)C (configuration not stated)	> 46 µM
COc1nccnc1NS(=O)(=O)c1ccc(N)cc1	> 46 µM
NS(=O)(=O)c2cc1c(/N=C\NS1(=O)=O)cc2Cl	> 46 µM
CC(N/C(=N\C#N)Nc1ccncc1)C(C)(C)C.O (configuration not stated)	> 46 µM
C[C@]12C=CC(=O)C=C1[C@@H](F)C[C@@H]1[C@@H]2[C@@H](O)C[C@@]2(C)[C@H]1CC[C@]2(O)C(=O)CO	> 46 µM
CC[C@]12CCCN3CCc4c(n(c5ccccc45)[C@@](O)(C(=O)OC)C1)[C@@H]32	> 46 µM
O=C(C)O[C@@](CC3)([C@](C)=O)[C@]2(C)[C@]3([H])[C@]1([H])C=C(C)C([C@@](CC4)(C)[C@]([H])1CC2)=CC4=O	> 46 µM
Clc1ccc(C(Cn2ccnc2)OCc2c(Cl)cccc2Cl)c(Cl)c1 (configuration not stated)	> 46 µM
CCN1CCN(C(=O)N[C@@H](C(=O)N[C@@H]2C(=O)N3C(C(=O)[O-])=C(CSc4nnnn4C)CS[C@H]23)c2ccc(O)cc2)C(=O)C1=O.[Na+]	> 46 µM
CCCC1C(=O)N2C(N(C)C)=Nc3ccc(C)cc3N2C1=O (configuration not stated)	> 46 µM
Cc1c(O)c(=O)ccn1C	> 46 µM
C=CCN1CCc2nc(N)sc2CC1	> 46 µM
CC(C)NCC1CCc2cc(CO)c([N+](=O)[O-])cc2N1 (configuration not stated)	> 46 µM
O=C([O-])CCCc1ccccc1.[Na+]	> 46 µM
CC12CCC(C[N+](C)(CCC[N+](C)(C)C)C1)C2(C)C.COS(=O)(=O)[O-].COS(=O)(=O)[O-] (configuration not stated)	> 46 µM
C1CCN2C[C@@H]3C[C@@H](CN4CCCC[C@@H]34)[C@H]2C1	> 46 µM
CC(C)=CCC/C(C)=C/CC/C(C)=C/CC/C=C(\C)CC/C=C(\C)CCC=C(C)C	> 46 µM

Compound	IC50
O=[C@]([O-])[C@@H]2N1C([C@@]([H])(N3C(C)(C)NC(C4=CC=CC=C4)C3=O)[C@]([H])1SC(C)2C)=O.[K+] (some centres not stated)	> 46 µM
COc1cc(/C=C/C(=O)N2CCN(CC(=O)N3CCCC3)CC2)cc(OC)c1OC.O=C(O)/C=C\C(=O)O	> 46 µM
Cn1sc(Cl)cc1=O	> 46 µM
CN(C)CC\C2=C\Nc1ccc(cc12)Cn3cncn3	> 46 µM
CN/C(=C\[N+](=O)[O-])NCCSCc1ccc(CN(C)C)o1	> 46 µM
O=C(OCc1ccccc1)c1cccnc1	> 46 µM
CN(C)C(=O)Nc1ccc(Cl)c(Cl)c1	> 46 µM
O=C([C@H](C)CS)N(CCC1)[C@@H]1[C@@](O)=O	> 46 µM
CC1CC(OC(=O)C(O)c2ccccc2)CC(C)(C)N1C.Cl (configuration not stated)	> 46 µM
O=S(=O)(O)NC1CCCCC1	> 46 µM
CCCCCCCCCCCCCCCCCC(=O)OC[C@@H](O)[C@H]1OC[C@H](O)[C@H]1O	> 46 µM
Cl.Cl.OCCN1CCN(CC/C=C2\c3ccccc3Sc3ccc(Cl)cc32)CC1	> 46 µM
FC(F)(F)C(F)(F)C(F)(F)C(F)(F)C(F)(F)F	> 46 µM
CC(=O)Oc1cccc2c1C(=O)c1c(OC(C)=O)cc(C(=O)O)cc1C2=O	> 46 µM
Cc1cc2c(OCC(CNC(C)(C)C)OC(=O)c3ccccc3)cccc2[nH]1 (configuration not stated)	> 46 µM
C=CCOc1ccccc1OCC(O)CNC(C)C.Cl (configuration not stated)	> 46 µM
Nc1nc(Cl)nc2c1ncn2[C@H]1C[C@H](O)[C@@H](CO)O1	> 46 µM
CCC1(C)CC(=O)NC(=O)C1	> 46 µM
CN(C)CCOC(=O)COc1ccc(Cl)cc1.Cl	> 46 µM
C=C[C@H]1C[N@@]2CC[C@H]1C[C@H]2[C@H](OC(=O)OCC)c1ccnc2ccc(OC)cc12	> 46 µM
NC(=O)NC(=O)Cc1ccccc1	> 46 µM
Cc1ccc(C(=O)C(C)CN2CCCCC2)cc1.Cl (configuration not stated)	> 46 µM
CC(=O)[C@H]1CC[C@H]2[C@@H]3C[C@H](C)C4=CC(=O)CC[C@]4(C)[C@H]3[C@@H](O)C[C@]12C	> 46 µM
Cc1cccc(C(=O)O)c1O	> 46 µM
